One molecule from paper PMC12257540, “From Inhibitors to PET: SAR-Based Development of [^18F]SK60 for mIDH1 Imaging” (Journal of Medicinal Chemistry, 2025) can be followed below.

Data set [1] can be described thus: logD7.4 by shake-flask method (n-octanol/PBS). The settings on record: n-octanol/PBS pH 7.4, n = 4. In kind it is physicochemical. How it is done: The logD 7.4 value of [ ^ 18 F]-SK60 was experimentally determined by the conventional shake-flask method using n-octanol and PBS as the partition system.
The two phases were presaturated with each other. A solution of the radiotracer (10 μL, 1.1 MBq) was added to a 15 mL plastic centrifuge tube containing n-octanol (3 mL) and PBS (3 mL). The tube was vortexed for 3 min and centrifuged at 3500 rpm for 5 min (Anke TDL80–2B, China). […] The logD 7.4 was determined as the ratio of cpm/mL of the n-octanol layer to that of the buffer layer. Samples from the n-octanol layer were redistributed until consistent distribution coefficient values were obtained. The measurement was carried out in triplicate and repeated three times.

The next data set deals with IDH1-U251 cells. Nature of the data set: In vitro cell uptake of [18F]SK60 in IDH1-U251 cells. The data set is classed as cell-based, Human. The settings on record: 240 min incubation. How it is done: (§1) Human U251 glioblastoma cells, stably transfected and overexpressing either wild-type IDH1 (IDH1-U251) or IDH1R132H (IDH1R132H–U251), were obtained from Jaqueline Kessler and Dirk Vordermark (Department of Radiotherapy, Martin Luther University Halle-Wittenberg, Halle/Saale, Germany). Cells were grown in RPMI 1640 medium (10% FCS), supplemented with puromycin, to ensure the cultivation of transfected cells only.
(§2) The IDH1-U251 and IDH1R132H–U251 cells were seeded at 4,00,000 cells/mL in a 24-well cell culture plate 1 day before the experiment. The medium was replaced by 400 μL/well, and 4 μL of a 100-x stock solution of the respective inhibitor in 10% DMSO or vehicle (10% DMSO) was added about 2 h before the experiment. The experiment was started with the addition of 100 μL of [ ^ 18 F]-SK60 (0.477 ± 0.002 MBq/mL; 4.86 ± 0.33 nM) diluted in cell culture medium per well, and the well plates were incubated in a humidified-air atmosphere incubator containing 5% CO2 at 37 °C for various times. The incubation was stopped by aspiration of the supernatant and washing the cell layers twice with prechilled PBS (500 μL/well). […] The concentrations of surface-bound and internalized activities per well were calculated as a percentage of the applied dose per well and normalized to the protein concentration per well (% AD/μg protein). […]

Another data set concerns IDH1R132H–U251 cells. As to the kind of experiment: In vitro cell uptake of [18F]SK60 in IDH1R132H-U251 cells. In kind it is cell-based, Human. The settings on record: 240 min incubation. How it is done:
as §1, §2

A further data set addresses P-gp efflux transporter (Mus musculus, UniProt P21447). As to the kind of experiment: Efflux transporter P-gp substrate study (PET, cyclosporine A pretreatment). The conditions noted are these: cyclosporine A 50 mg/kg i.v. 30 min before radioligand.
Data set [2] has as its system IDH1R132H-U251 cells (target-positive) and IDH1-U251 cells (target-negative). Nature of the data set: Real-time radioligand binding (LigandTracer) to live U251 cells. The conditions noted are these: room temperature, medium without or with 5 % BSA. Further details: species or system Human. How it is done:
Real-time radioligand binding
Real-time radioligand binding using LigandTracer®
The LigandTracer (LigandTracer Yellow, Ridgeview Instruments AB, Uppsala, Sweden) system allows assessment of binding kinetics (association rate constant ka and dissociation rate constant kd) and therefore dissociation constant (KD).
Briefly, target-positive/-negative cells are seeded to different quadrants of a petri dish (Thermo Scientific Nunclon Delta #150350). Here, approximately 5x10^4 target-positive cells (IDH1R132H-U251 cells) and target-negative cells (IDH1-U251 cells) were seeded in a ~20 mm round spot (0.5 mL of a solution of 1x10^5 cells/mL), three days before the experiment. […]
The culture medium is removed and replaced with 3 mL CO2-independent medium (Gibco #18045088, ThermoFisher Germany) without or with bovine serum albumin (BSA) (5 %; #3737.3, Carl Roth GmbH, Karlsruhe, Germany). In the instrument, the dish rotates on an inclined base, where cells in medium (3 mL) are located on one side, while radioactivity is detected on the opposite side. This allows continuous measurements of two or more alternating parts of the dish for bound radioactivity (e.g. target-positive) against background (e.g. no cells) or target-negative cells. […]
Data was acquired in decay-corrected counts per second (CPS) and subsequently analyzed using TraceDrawer (1.9.2, Ridgeview Instruments AB, Uppsala, Sweden). […]

The structures appear in SMILES notation.

Chain of P-gp efflux transporter (P21447 whole entry): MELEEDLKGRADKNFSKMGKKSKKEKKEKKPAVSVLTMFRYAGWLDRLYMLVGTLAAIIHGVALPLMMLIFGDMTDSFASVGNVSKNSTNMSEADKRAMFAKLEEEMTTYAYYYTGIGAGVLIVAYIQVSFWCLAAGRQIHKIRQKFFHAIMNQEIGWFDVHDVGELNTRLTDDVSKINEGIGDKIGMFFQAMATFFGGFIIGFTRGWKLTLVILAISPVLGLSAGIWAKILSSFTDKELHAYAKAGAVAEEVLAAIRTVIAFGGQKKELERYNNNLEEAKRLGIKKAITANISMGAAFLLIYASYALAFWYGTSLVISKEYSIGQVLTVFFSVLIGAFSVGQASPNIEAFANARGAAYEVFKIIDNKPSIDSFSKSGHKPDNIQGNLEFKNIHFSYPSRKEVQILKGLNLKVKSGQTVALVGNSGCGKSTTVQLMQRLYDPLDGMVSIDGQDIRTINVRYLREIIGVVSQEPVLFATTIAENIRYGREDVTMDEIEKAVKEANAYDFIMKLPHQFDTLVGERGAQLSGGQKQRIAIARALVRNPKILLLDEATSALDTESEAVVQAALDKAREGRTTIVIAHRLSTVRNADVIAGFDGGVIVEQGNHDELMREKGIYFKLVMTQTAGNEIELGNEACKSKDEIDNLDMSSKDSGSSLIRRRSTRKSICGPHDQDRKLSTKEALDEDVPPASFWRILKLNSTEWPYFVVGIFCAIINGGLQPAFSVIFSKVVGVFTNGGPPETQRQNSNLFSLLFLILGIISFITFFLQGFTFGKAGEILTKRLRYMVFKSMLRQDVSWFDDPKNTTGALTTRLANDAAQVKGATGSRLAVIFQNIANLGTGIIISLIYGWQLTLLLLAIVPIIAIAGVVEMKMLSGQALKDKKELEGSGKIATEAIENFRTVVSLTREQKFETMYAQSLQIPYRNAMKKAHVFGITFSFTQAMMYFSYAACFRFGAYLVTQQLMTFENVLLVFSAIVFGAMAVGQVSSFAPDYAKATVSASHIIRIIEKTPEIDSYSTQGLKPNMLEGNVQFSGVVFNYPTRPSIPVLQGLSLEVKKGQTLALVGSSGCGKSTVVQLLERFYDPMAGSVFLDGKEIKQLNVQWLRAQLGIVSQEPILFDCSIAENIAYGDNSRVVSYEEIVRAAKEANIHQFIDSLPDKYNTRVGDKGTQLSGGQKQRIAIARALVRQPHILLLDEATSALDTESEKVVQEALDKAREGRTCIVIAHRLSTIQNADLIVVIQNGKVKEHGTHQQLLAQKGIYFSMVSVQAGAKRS
Protocol for P-gp efflux transporter: To investigate the role of P-gp, mice were treated with cyclosporine A, an inhibitor of the P-gp efflux transporter.
For the time of the experiments, female CD-1 mice (n = 4; 8–10 weeks; 37–40 g) were kept in a dedicated climatic chamber with free access to water and food under a 12:12 h dark: light cycle at a constant temperature (24 °C). The animals were anesthetized (Anaesthesia Unit U-410, agntho’s, Lidingö, Sweden) with isoflurane (2.0%, 300 mL/min) delivered in a 20% oxygen/80% air mixture (Gas Blender 100 Series, MCQ instruments, Rome, Italy) and their body temperature maintained at 37 °C with a thermal bed system. […] Each PET image was corrected for random coincidences, dead time, scatter, and attenuation (AC) based on a whole body (WB) MR scan. The reconstruction parameters for the list mode data were 3D-ordered subset expectation maximization (OSEM), 4 iterations, 6 subsets, energy window: 400–600 keV, coincidence mode: 1–5, ring difference: 81. The PET data were collected by a continuous WB scan during the entire investigation. […] The brain region was identified using the mouse brain atlas template Ma-Benveniste-Mirrione-FDG. The activity data are expressed as the SUVmean of the overall ROI.

`Cc1cccc(NC(=O)c2nn(Cc3ccc([18F])cc3)c3c2CN(C(=O)c2ccc[nH]2)CC3(C)C)c1` [[18F]SK60] yielded a logD in data set [1] of 2.3 ± 0.5. In the data set on IDH1-U251 cells, this molecule came in with an internalized radioligand of 0.074 ± 0.023 % AD/μg protein and a surface-bound radioligand of 0.052 ± 0.029 % AD/μg protein. This molecule returned an internalized radioligand in the data set with IDH1R132H–U251 cells of 0.089 ± 0.02 % AD/μg protein. The “increase of brain uptake after cyclosporine A compared to vehicle” value on P-gp efflux transporter is “approximately 2.5 fold”. The “real-time radioligand binding to live cells” value in data set [2] was “Reliable binding of [18F]SK60 could not be observed”.
